According to patent US20230073512A1, “MODULATORS OF CULLIN 3 ADAPTOR KBTBD4 AS ANTI-CANCER COMPOUNDS” (UNIVERSITE DE MONTREAL, priority 2019, published 2023):

Test system: AML3
Assay: Cell proliferation of cancerous cell lines
Type: cell-based
Conditions: AML3; read-out: Antineoplastic effect of tested compounds on cell proliferation of cancerous AML3 cells, IC50

| IC50 | SMILES |
| --- | --- |
| < 500 nM | Cn1nnc(-c2ccc3c(c2)[nH]c2nc(Cc4ccccc4)nc(NCCCN4CCCC4)c23)n1 |
| < 500 nM | CNS(=O)(=O)c1cccc(Nc2ncnc3[nH]c4cc(C(=O)OC)ccc4c23)c1 |
| < 500 nM | CCNCCNc1nc(Cc2ccccc2)nc2[nH]c3cc(C(=O)OC)ccc3c12 |
| 1000 to 2000 nM | COC(=O)c1ccc2c(c1)[nH]c1nc(Cc3cccc(C(=O)C(F)(F)F)c3)nc(NCCCN3CCCCC3)c12 |
| 1000 to 2000 nM | CNCCCNc1nc(Cc2ccccc2)nc2[nH]c3cc(C(=O)OC)ccc3c12 |
| 2000 to 5000 nM | C#CCOC(CNc1nc(Cc2ccccc2)nc2[nH]c3cc(C(=O)OC)ccc3c12)CN1CCCCC1 (stereo not drawn) |
| 2000 to 5000 nM | COC(=O)c1ccc2c(c1)[nH]c1nc(Cc3ccccc3)nc(NCC(O)CN3CCCCC3)c12 (stereo not drawn) |
| 1000 to 2000 nM | COC(=O)c1ccc2c(c1)[nH]c1nc(Cc3ccccc3)nc(NCCCN(C)CCCN)c12 |
| 2000 to 5000 nM | COC(=O)c1ccc2c(c1)[nH]c1nc(Cc3ccccc3)nc(NCCCN(C)CC(O)COCc3ccccc3)c12 (stereo not drawn) |
| 1000 to 2000 nM | COC(=O)c1ccc2c(c1)[nH]c1nc(Cc3ccccc3)nc(NCCN(C)CCN)c12 |
| 1000 to 2000 nM | COC(=O)c1ccc2c(c1)[nH]c1nc(Nc3ccccc3)nc(NCCCN3CCCCC3)c12 |
| 1000 to 2000 nM | Cc1nc(-c2ccc3c(c2)[nH]c2nc(Cc4ccccc4)nc(NCCCN4CCCCC4)c23)no1 |
| 1000 to 2000 nM | COC(=O)c1ccc2c(c1)[nH]c1nc(C(OCc3ccccc3)c3ccccc3)nc(NCCCN3CCCCC3)c12 (stereo not drawn) |
| 500 to 1000 nM | COC(=O)c1ccc2c(c1)[nH]c1nc(C(O)c3ccccc3)nc(NCCCN3CCCCC3)c12 (stereo not drawn) |
| 2000 to 5000 nM | COC(=O)c1ccc2c(c1)[nH]c1nc(Cc3ccccc3)nc(SCCCN3CCCCC3)c12 |
| 2000 to 5000 nM | COC(=O)c1ccc2c(c1)[nH]c1nc(C(=O)c3ccccc3)nc(NCCCN3CCCCC3)c12 |
| 2000 to 5000 nM | COC(=O)c1ccc2c(c1)[nH]c1nc(C(C)c3ccccc3)nc(NCCCN3CCCCC3)c12 (stereo not drawn) |
| 1000 to 2000 nM | COC(=O)c1ccc2c(c1)[nH]c1nc(Cc3ccccc3)nc(CCCCN3CCCCC3)c12 |

| IC50 | SMILES |
| --- | --- |
| 1000 to 2000 nM | C#CCNCCCN(C)CCCNc1nc(Cc2ccccc2)nc2[nH]c3cc(C(=O)OC)ccc3c12 |
| 2000 to 5000 nM | COC(=O)c1ccc2c(c1)[nH]c1nc(Cc3ccccc3)nc(NCC3CCCN3)c12 (stereo not drawn) |
| 500 to 1000 nM | C#CCCC(=O)NCCCN(C)CCCNc1nc(Cc2ccccc2)nc2[nH]c3cc(C(=O)OC)ccc3c12 |
| 2000 to 5000 nM | COC(=O)c1ccc2c(c1)[nH]c1nc(Cc3ccccc3)nc(NCCCN(C)CCCNc3ncnc4[nH]c5ccccc5c34)c12 |
| 500 to 1000 nM | CN1CCN(c2ccc(CNc3nc(Cc4ccccc4)nc4[nH]c5cc(-c6nnn(C)n6)ccc5c34)cc2)CC1 |
| 1000 to 2000 nM | COC(=O)c1ccc2c(c1)[nH]c1nc(Cc3ccccc3)nc(Cl)c12 |
| 500 to 1000 nM | COC(=O)c1ccc2c(c1)[nH]c1nc(Cc3ccccc3)nc(NCC3CCNC3)c12 (stereo not drawn) |
| 1000 to 2000 nM | Cn1nnc(-c2ccc3c(c2)[nH]c2ncnc(N[C@H]4CC[C@H](N)CC4)c23)n1 |
| 1000 to 2000 nM | Cn1nnc(-c2ccc3c(c2)[nH]c2cc(Cc4ccccc4)nc(NCCCN4CCCCC4)c23)n1 |
| 2000 to 5000 nM | COC(=O)c1ccc2c(c1)[nH]c1nc(Cc3ccccc3)cc(NCCCN3CCCCC3)c12 |
| 2000 to 5000 nM | COC(=O)c1ccc2c(c1)[nH]c1cc(Cc3ccccc3)nc(NCCN3CCCC3)c12 |
| 500 to 1000 nM | CN(CCCN)CCCNc1nc(Cc2ccccc2)nc2[nH]c3cc(-c4nnn(C)n4)ccc3c12 |
| 2000 to 5000 nM | Cn1nnc(-c2ccc3c(c2)[nH]c2nc(Cc4ccccc4)nc(NCCCNCCCN)c23)n1 |
| 2000 to 5000 nM | CC(=O)NCCNc1nc(Cc2ccccc2)nc2[nH]c3cc(-c4nnn(C)n4)ccc3c12 |
| 1000 to 2000 nM | Cn1nnc(-c2ccc3c(c2)[nH]c2nc(Cc4ccccc4)nc(NCCCNCCCNC(=O)CCCC[C@@H]4SC[C@@H]5NC(=O)N[C@@H]54)c23)n1 |
| 1000 to 2000 nM | Cn1nnc(-c2ccc3c(c2)[nH]c2nc(Cc4ccccc4)nc(NCCN)c23)n1 |
| 2000 to 5000 nM | COC(=O)c1ccc2c(c1)[nH]c1nc(Cc3cccc(F)c3)nc(NCCCN(C)CCCN)c12 |
| 1000 to 2000 nM | Cn1nnc(-c2ccc3c(c2)[nH]c2ncnc(NCC(O)CN4CCCCC4)c23)n1 (stereo not drawn) |
